Read-outs that look alike come from different tables or passages of the source.
Assays:
[1] = cited from earlier work; for Cbaseline: Mean ± SD
[2] = male, human, in vivo
Description: In the Screening Period, subjects underwent screening within 28 days prior to entering into the study.
(§1) Study Drugs and Administration.
(§2) Each 100 μL spray was administered to the left nostril via a commercially-available multiple dose nasal spray device marketed by Aptar Pharma. Priming of the device (activation 5 times) was done in a hood or priming box within 30 minutes prior to dosing the subject.
Participants. […] Plasma samples from all subjects that complete the study were analyzed.
(§3) Pharmacokinetic Analysis.

[3] = clinical; details: human, in vivo, pH 4, tmax
Description: Study Design. A Phase 1, open-label, randomized, single-dose, two-treatment, crossover study was carried out that consisted of a screening period, baseline period, and an open-label treatment period. In the screening period, subjects underwent screening within 21 days prior to entering into the open-label treatment phase of the study.
Safety assessments were performed on each study day and subjects released after discharge assessments on Day 1. Subjects were followed for 6 hours after the administration of the last dose of study drug.
Plasma samples from all subjects that completed two periods of the study were analyzed. […] Actual sampling times were recorded.
as §1, §2, §3
Non-GCP pharmacokinetic analysis was performed using WinNonlin version 7.0. […] Baseline corrected Cmax was calculated from the uncorrected Cmax−PreDose concentration. Baseline corrected AUC0-t was calculated from the uncorrected AUC0-t−PreDose concentration×tlast. […] The point estimates and confidence limits will be exponentiated back to the original scale.

[4] = single 0.3 mg doses, intranasal and intramuscular; healthy volunteers

For `CNC[C@H](O)c1ccc(O)c(O)c1` [Epinephrine, (R)-4-(1-Hydroxy-2-(methylamino)ethyl)benzene-1,2-diol], the Cbaseline ([1]; Intramuscular (IM) 0.3 mg) is given as 35 ± 23 pg/mL, the Cbaseline ([1]; Intranasal (IN) 5 mg) is given as 8 ± 6 pg/mL and the “clearance from the plasma” value ([1]; Srisawat's 5 mg intranasal formulation (FIG. 2)) is given as “cleared from the plasma almost entirely in about two hours”. The “blood level of epinephrine” value ([1]; intranasal dose level of 2.5 mg and below) was “no blood level of epinephrine”, the “systemic absorption of epinephrine via the IN route” value ([1]; intranasal, dose range of Srisawat (FIG. 1)) was “significant systemic absorption of epinephrine via the IN route was observed only at 5 mg” and the rate of absorption [2] was “rapid, IM-injection-like rate of absorption in the first 20 minutes”. For the same compound, the Tmax [3] was 53 min and the adverse events [4] was “no related adverse events reported”.
